Literature values as cited in patent EP1680106B1, “COMBINATION TREATMENT OF OBESITY INVOLVING 4,5-DIHYDRO-1H-PYRAZOLE DERIVATIVES HAVING CB1-ANTAGONISTIC ACTIVITY AND LIPASE INHIBITORS” (Solvay Pharmaceuticals GmbH, priority 2003, dated 2005).

Columns and labels:
[1] = atypical antipsychotics, follow-up studies
[2] = healthy male volunteers, 5 days with meals; ATL-962 50 mg to 300 mg, orlistat 120 mg tid; placebo 1.4 (+/-1.0)
[3] = tested on: carragheenin-induced swelling; details: mice

Compound	weight gain with long-term treatment [1]	other results
Cc1nc2n(c(=O)c1CCN1CCC(c3noc4cc(F)ccc34)CC1)CCCC2 [Risperidone]	modest weight changes that are not dose related	
CN1CCN(C2=Nc3cc(Cl)ccc3Nc3ccccc32)CC1 [clozapine]	largest weight gains	
Cc1cc2c(s1)Nc1ccccc1N=C2N1CCN(C)CC1 [olanzapine]	largest weight gains	
OCCOCCN1CCN(C2=Nc3ccccc3Sc3ccccc32)CC1 [quetiapine]	smallest	
CCCCCCCCCCC[C@@H](C[C@@H]1OC(=O)[C@H]1CCCCCC)OC(=O)[C@H](CC(C)C)NC=O [tetrahydrolipstatin, (2S,3S,5S)-5-((S)-2-4-methylvaleryloxy)-2-hexyl-3-hydroxy-hexadecanoic acid lactone]		average fat excreted [2]: 5.6 (+/-3.8) g/day
O=C1Cc2cc(CCN3CCN(c4nsc5ccccc45)CC3)c(Cl)cc2N1 [ziprasidone]	smallest	
Ebelactone B		carragheenin-induced swelling [3]: reduces carragheenin-induced swelling
